{"source": "patent US9085559B2", "about": "“Triazine-aryl-bis-indoles and process for preparation thereof” (COUNCIL OF SCIENTIFIC & INDUSTRIAL RESEARCH, priority 2010, dated 2015)", "system": "rodent", "assay": "Prediction of acute oral LD50 from the IC50 by Halle's Registry of cytotoxicity (RC) prediction model", "settings": "log (LD50)=0.435×log (IC50)+0.625", "description": "FIG. 8. IICT-TA67 is not toxic. To evaluate the cytotoxicity of test chemical (IICT-TA67) BALB/c 3T3 cell line was used for Neutral Red Uptake (NRU) cytotoxicity test. The test result has been used to determine IC50 for IICT-TA67 and acute oral toxicity (LD50) in rodent was predicted.\nBasal cytotoxicity of IICT-TA67 has been performed to measure IC50 and thereafter predict in vivo acute oral LD50 values in rodent by using Halle's Registry of cytotoxicity (RC) prediction model: log (LD50)=0.435×log (IC50)+0.625 (Halle, 1998; Spielmann et al., 1999). Balb/c 3T3 Neutral Red Dye Uptake (NRU) cytotoxicity assay procedure was adopted (Liebsch & Spielmann 1995). In brief 3T3 cell were grown in 96 well microtitre plates and exposed to IICT-TA-67. After 48-hour incubation, the test material was removed and Neutral red (NR) solution was applied to the cells. […] The NRU was determined by using a microtitre plate reader to measure the optical density at 540 nm of the eluted dye in 96 well plate. A calculation of cell viability expressed as NRU was made for each concentration of the test chemical by using the mean NRU of 6 replicate values per test concentration. The cell viability value was compared with the mean NRU of all vehicle control values and relative cell viability was then expressed as percent of untreated vehicle control. […]"}
{"smiles": "COc1ccc(C(c2[nH]c3ccccc3c2CC(=O)O)c2[nH]c3ccccc3c2CC(=O)O)cc1Oc1nc(NC2CC2)nc(NC2CC2)n1", "note": "[Compound 7, 2,2′-[2,2′-3-(4,6-bis-cyclopropylamino)-1,3,5-triazin-2-yl-oxy-4-methoxy-phenyl]-methylene-bis-(1H-indole-3,3-diyl)-diacetic acid]", "values": [{"measurement": "predicted acute oral LD50", "result": 430, "unit": "mg/kg body weight"}]}
